Reference: US20070249555A1, “Use of Atp Analogues for Treatment of Cardiovascular Diseases” (INSTITUT NATIONAL DE LA SANTE ET DE LA RECHERCHE MEDICALE …, priority 2004, published 2007)

Columns and labels:
human P2Y13 receptor = target: T1, human P2Y13 receptor (Homo sapiens, UniProt Q9BPV8); assay: TG-HDL2 internalization by HepG2 cells after P2Y13 receptor silencing by siRNA; assay type: cell-based; conditions: HepG2, P2Y13 siRNA 100 nM, 48 h; apoA-I 10 μg/ml, ADP 100 nM, AR-C69931MX 100 nM
T1 construct: host or cells: HepG2
T1 sequence (Q9BPV8 1-354): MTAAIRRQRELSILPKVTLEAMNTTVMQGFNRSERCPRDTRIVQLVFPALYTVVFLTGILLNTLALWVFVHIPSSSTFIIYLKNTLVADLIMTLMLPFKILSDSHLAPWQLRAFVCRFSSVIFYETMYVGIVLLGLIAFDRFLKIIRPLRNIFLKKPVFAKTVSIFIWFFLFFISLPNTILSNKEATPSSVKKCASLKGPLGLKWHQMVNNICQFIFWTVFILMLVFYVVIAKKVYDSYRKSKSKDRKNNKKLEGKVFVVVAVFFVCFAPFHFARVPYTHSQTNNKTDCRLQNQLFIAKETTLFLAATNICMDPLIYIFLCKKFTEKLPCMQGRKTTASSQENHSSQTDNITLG
Experimental: Experiment was performed as in FIG. 2A with non-specific control siRNA (a, b, c) or with siRNA directed to human P2Y13 receptor (d, e, f, g) (n>7); (*) p<0.05 (unpaired t-test).
Internalization assays were performed as described in Guendouzi et al., (Biochemistry, 1998, 37: 14974-80) on HepG2 cells, obtained from the American Type Culture Collection ([…]). Cells were incubated for 10 minutes at 37° C. with 75 μg/ml of either ^125I-TG-HDL2, ^125I-HDL3 or ^125I-LDL. After washing and dissociation at 4° C. in phosphate buffered saline (PBS), cell radioactivity was determined using a Wallac 1261 multigamma apparatus.
The silencing of the different P2Y receptors were carried-out using the siRNA technique. The siRNA sequenced targeting human P2Y13 receptor (Gene Bank GB/EMBL/DDBJ accession number AF295368) was from position 406 or 359 relative to the start codon. The siRNA duplex (21-nt-RNAs) in deprotected and desalted form, the siRNA targeting human P2Y1 receptor (a mix of 4 siRNAs, M-005689), and the non-specific control siRNA (D-001206-01) were purchased from Dharmacon Inc. Subconfluent HepG2 cells were transiently transfected with siRNAs (final concentration, 100 nM) using Oligofectamine™ according to the manufacturer's protocole (Invitrogen). Cells were usually assayed 48 hours after transfection. Specific silencing effect was confirmed by at least three independent experiments.
Results are expressed as a percentage of internalization with respect to the control value (set at 0). Control corresponded to a basal value of internalization, amounting to 400 ng, 300 ng, 200 ng of TG-HDL2, HDL3 and LDL per mg of cells protein respectively for 10 minutes. Data as a mean ±SEM of at least 7, 5, 6 independent experiments, for TG-HDL2, HDL3 and LDL respectively.

HepG2 cells = assay: TG-HDL2 internalization by HepG2 cells; assay type: cell-based, human; conditions: 10 min at 37° C.
Experimental: Cells were incubated for 10 minutes at 37° C. with 75 μg/ml^125I-TG-HDL2 without (control) or with apolipoprotein A-I 10 μg/ml (a), ADP 100 nM (b), AR-C69931MX 100 nM (c), ADP 100 nM+AR-C69931MX 100 nM (d), ADP 100 nM+[…] 100 μM (e), ADP 100 nM+MRS2179 10 μM (f). […] Internalization assays were performed as described in Guendouzi et al., (Biochemistry, 1998, 37: 14974-80) on HepG2 cells, obtained from the American Type Culture Collection ([…]). Cells were incubated for 10 minutes at 37° C. with 75 μg/ml of either ^125I-TG-HDL2, ^125I-HDL3 or ^125I-LDL. After washing and dissociation at 4° C. in phosphate buffered saline (PBS), cell radioactivity was determined using a Wallac 1261 multigamma apparatus. Prior experiments, cells were plated in polylysine-coated 24-multiwell plates (Falcon) at 4×10^4 cells per well. Cells were grown in Dulbecco's modified Eagles medium supplemented with 10% fetal calf serum, 100 units/ml penicillin, and 100 μg/ml streptomycin at 37° C. in a 5% CO2 and 95% air incubator. Medium was changed every 2 or 3 days, and the cells were subcultured every 7-8 days. Results are expressed as a percentage of internalization with respect to the control value (set at 0). Control corresponded to a basal value of internalization, amounting to 400 ng, 300 ng, 200 ng of TG-HDL2, HDL3 and LDL per mg of cells protein respectively for 10 minutes. Data as a mean ±SEM of at least 7, 5, 6 independent experiments, for TG-HDL2, HDL3 and LDL respectively.

Structure (SMILES)	effect of P2Y13 receptor silencing on TG-HDL2 endocytosis after stimulation (human P2Y13 receptor)	ADP-dependent TG-HDL2 internalization, increase above control cells (HepG2 cells; ADP 100 nM + AR-C69931MX 100 nM)	internalization of 125I-TG-HDL2 by HepG2 cells, increase above control cells (HepG2 cells; 75 μg/ml 125I-TG-HDL2, apoA-I 10 μg/ml, ADP 100 nM, AR-C69931MX 100 nM alone) [%]
CSCCNc1nc(SCCC(F)(F)F)nc2c1ncn2[C@@H]1O[C@H](COP(=O)(O)OP(=O)(O)C(Cl)(Cl)P(=O)(O)O)[C@@H](O)[C@H]1O [AR-C69931MX, N-[2-(methylthio)ethyl]-2-[(3,3,3-trifluoropropyl)thio]-5′-adenylic acid, monoanhydride with dichloromethylenebisphosphonic acid]	dramatic inhibition	over 30%	
Nc1ncnc2c1ncn2[C@@H]1O[C@H](COP(=O)(O)OP(=O)(O)O)[C@@H](O)[C@H]1O [ADP, adenosine diphosphate, reference compound]	dramatic inhibition		20
